This note sets out measurements from patent US8440830B2, “Tetrahydro-fused pyridines as histone deacetylase inhibitors” (4SC AG, priority 2007, dated 2013).

In this assay the test system is A549 NSCLC cells. Put plainly: Cell cycle analysis by flow cytometry. The format is cell-based, human. The note with it: A549, 24 h treatment. The method, then: A549 NSCLC cells (ATTC CCL-185) are cultivated in DMEM with high glucose (supplemented with 10% FBS) at 5% CO2 and 37° C. in a humidified atmosphere under standard cell culture conditions. 24 h before compound treatment, cells are seeded at 5×10^4 cells/ml (=5×10^5 cells/10 cm cell culture dish) to allow logarithmic proliferation during the experiment. After 24 h, cells were treated with test compound or 0.5 vol % DMSO as a control. After 24 h and 48 h treatment, the culture medium is collected and detached, floating cells are collected by short centrifugation (5 min at 1200 rpm). Attached cells are washed once with 5 ml PBS, detached by treatment with 3 ml trypsin/EDTA solution (short incubation for 3-5 min) and—together with detached, floating cells—transferred into 15 ml Falcon tubes. The cell culture dish is washed with 10 ml DMEM to collect all remaining cells. After centrifugation for 5 min at 1200 rpm at room temperature, the supernatant is discarded and the cell pellet washed twice with 10 ml PBS. The supernatant is discarded, the cells resuspended in 4 ml ice-cold fixation solution (70 vol % ethanol, 30 vol % H2O; stored at −20° C.) and stored at −20° C. overnight. Next, 10 ml PBS (4° C.) is added to the cells, before centrifugation for 5 min at 1200 rpm (4° C.). The supernatant is discarded, the cell pellet washed once with 10 ml PBS (4° C.) and the cell pellet finally resuspended in about 1 ml staining solution (10 μg/ml RNAse A, 10 μg/ml propidiumiodide in PBS, final volume dependent on cell number). After incubation for 30 min at room temperature in the dark, cells are stored on ice and analyzed using the Becton Dickinson FACS Canto device. Analysis is done at an excitation of λ=488 nm with emission set as λ=600 nm.
Data analysis: Cells are analyzed according to size, granularity and propidiumiodide intensity. Size and granularity of cells are determined by measurement of forward scatter (FSC) and side scatter (SSC) of the λ=488 nm excitation light, respectively. To discriminate cells with 4N DNA content from cell doublets (two attached cells with 2N DNA content each), the ratio between the area under the propidiumiodide peak (PE-A) and the height of the propidiumiodide peak (PE-H) for each cell is determined. Cell doublets need more time to pass through the laser beam, which causes a broadening of the propidiumiodide peak and an increase of the ratio PE-A/PE-H. Using this analysis, cells in 4N and cell doublets appear as distinct clouds in a scatter plot and are excluded from the analysis. Thus, the area under the propidiumiodide peak at λ=600 nm (PE-A) is a measure for the DNA content of the cells. PE-A is blotted against the measured cell number in a histogram in order to determine the percentage of analyzed cells in an individual stage of the cell cycle.
On the technique in general: Flow cytometry measures light scatter and fluorescence of single cells or particles in a stream.

With `Nc1ccccc1NC(=O)c1nc2c(s1)CN(C(=O)Nc1ccc(-c3ccccc3)cc1)CC2` [Example 1, N^2-(2-aminophenyl)-N5-biphenyl-4-yl-6,7-dihydro[1,3]thiazolo[5,4-c]pyridine-2,5(4H)-dicarboxamide], the “concentration inducing arrest in G1, depletion of cells in the S-phase and reduction of cells in the G2/M-phase” value was “around 3 μM”.

`CN(C)c1ccc(NC(=O)N2CCc3nc(C(=O)Nc4ccccc4N)sc3C2)cc1` [Example 2, N^2-(2-aminophenyl)-N5-[4-(dimethylamino)phenyl]-6,7-dihydro[1,3]thiazolo[5,4-c]pyridine-2,5(4H)-dicarboxamide]: the “concentration inducing arrest in G1, depletion of cells in the S-phase and reduction of cells in the G2/M-phase” value is “around 3 μM”.

Turning to `COc1ccc(NC(=O)N2CCc3nc(C(=O)Nc4ccccc4N)sc3C2)cc1` [Example 3, N^2-(2-aminophenyl)-N5-(4-methoxyphenyl)-6,7-dihydro[1,3]thiazolo[5,4-c]pyridine-2,5(4H)-dicarboxamide], the “concentration inducing arrest in G1, depletion of cells in the S-phase and reduction of cells in the G2/M-phase” value is given as “around 3 μM”.

On to `Nc1ccccc1NC(=O)c1nc2c(s1)CN(C(=O)Nc1cnc3ccccc3c1)CC2` [Example 12, N^2-(2-aminophenyl)-N5-quinolin-3-yl-6,7-dihydro[1,3]thiazolo[5,4-c]pyridine-2,5(4H)-dicarboxamide], for which the “concentration inducing arrest in G1, depletion of cells in the S-phase and reduction of cells in the G2/M-phase” value is reported as “around 3 μM”.
